Measured values published in patent US6441195B1, “Substituted sulphonylamino(thio) carbonyl compounds” (Bayer Aktiengesellschaft, priority 1995, dated 2002).

Tests used:
Format in all cases: in vivo
weeds = test: Pre-emergence test (greenhouse), activity against weeds; conditions: in words
Method in brief: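 Compound formulated in acetone with alkylaryl polyglycol ether emulsifier, diluted in water, and watered onto soil about 24 h after sowing, dosed by application rate per unit area. Damage rated after three weeks as % versus untreated control (0% = no action).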

Maize = test: Pre-emergence test/Greenhouse, Maize; conditions: in vivo
Method in brief: (§1)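 Percent damage relative to untreated control plants, scored three weeks after treatment, is the read-out (0% meaning no effect). Treatment consisted of watering the soil with an emulsified aqueous preparation roughly 24 h after seeds were sown, at constant water volume per area.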

Soya beans = test: Pre-emergence test/Greenhouse, Soya beans; conditions: in vivo
Method in brief: as §1

Lolium = test: Pre-emergence test/Greenhouse, Lolium; conditions: after three weeks
Method in brief: as §1

Poa = test: Pre-emergence test/Greenhouse, Poa; conditions: after three weeks
Method in brief: as §1

Sorghum = test: Pre-emergence test/Greenhouse, Sorghum; conditions: after three weeks
Method in brief: as §1

Ambrosia = test: Pre-emergence test/Greenhouse, Ambrosia; conditions: after three weeks
Method in brief: as §1

Matricaria = test: Pre-emergence test/Greenhouse, Matricaria; conditions: after three weeks
Method in brief: as §1

Solanum = test: Pre-emergence test/Greenhouse, Solanum; conditions: after three weeks
Method in brief: as §1

SMILES | activity against weeds (weeds) | degree of damage to the plants (% damage vs untreated control), Maize (Maize) | degree of damage to the plants (% damage vs untreated control), Soya beans (Soya beans) | degree of damage to the plants (% damage vs untreated control), Lolium (Lolium; 60 g of ai./ha) | degree of damage to the plants (% damage vs untreated control), Poa (Poa; 60 g of ai./ha) | degree of damage to the plants (% damage vs untreated control), Sorghum (Sorghum; 60 g of ai./ha) | degree of damage to the plants (% damage vs untreated control), Ambrosia (Ambrosia; 60 g of ai./ha) | degree of damage to the plants (% damage vs untreated control), Matricaria (Matricaria; 60 g of ai./ha) | degree of damage to the plants (% damage vs untreated control), Solanum (Solanum; 60 g of ai./ha) | further results
CSc1nn(C(=O)NS(=O)(=O)c2c(C)cccc2C(=O)OC(C)C)c(=O)n1C [Example 8] | very strong activity against weeds | 30% | 0% | 95% | 90% | 80% | 90% | 95% | 95% | –
C#CCSc1nn(C(=O)NS(=O)(=O)c2c(C)cccc2C(=O)OC)c(=O)n1C1CC1 [Example 160] | very strong activity against weeds | 30% | 10% | 90% | 90% | 60% | 90% | 95% | 90% | –
COC(=O)c1cccc(C)c1S(=O)(=O)[N-]C(=O)n1nc(SC)n(C)c1=O.[Na+] [Example 145] | very strong activity against weeds | 0% | 0% | 95% | 95% | 95% | 95% | 60% | 95% | –
Cc1nc(C(=O)NS(=O)(=O)c2c(C)cccc2C(=O)OC(C)C)no1 [Example 12] | very strong activity against weeds | 0% | 0% | – | – | – | – | – | – | degree of damage to the plants (% damage vs untreated control), Lolium (Lolium; 125 g of ai./ha): 80%; degree of damage to the plants (% damage vs untreated control), Poa (Poa; 125 g of ai./ha): 80%; degree of damage to the plants (% damage vs untreated control), Sorghum (Sorghum; 125 g of ai./ha): 60%; degree of damage to the plants (% damage vs untreated control), Ambrosia (Ambrosia; 125 g of ai./ha): 95%; degree of damage to the plants (% damage vs untreated control), Matricaria (Matricaria; 125 g of ai./ha): 95%; degree of damage to the plants (% damage vs untreated control), Solanum (Solanum; 125 g of ai./ha): 95%
COC(=O)c1cccc(Cl)c1S(=O)(=O)NC(=O)n1nc(SC)n(C)c1=O [Example 130] | very strong activity against weeds | 10% | 0% | – | – | – | – | – | – | degree of damage to the plants (% damage vs untreated control), Lolium (Lolium; 250 g of ai./ha): 95%; degree of damage to the plants (% damage vs untreated control), Poa (Poa; 250 g of ai./ha): 95%; degree of damage to the plants (% damage vs untreated control), Sorghum (Sorghum; 250 g of ai./ha): 80%; degree of damage to the plants (% damage vs untreated control), Ambrosia (Ambrosia; 250 g of ai./ha): 95%; degree of damage to the plants (% damage vs untreated control), Matricaria (Matricaria; 250 g of ai./ha): 95%; degree of damage to the plants (% damage vs untreated control), Solanum (Solanum; 250 g of ai./ha): 95%
